From US20230211052A1, “COMPOUNDED ACTIVE PHARMACEUTICAL AGENTS IN THERMOPLASTIC POLYMER COMPOSITIONS AND METHODS OF MANUFACTURE” (priority 2021, published 2023) come the findings set out here.

Structures can show the parent of a compound that is named as a salt.

This series can be described thus: Thermal stability assessment, oven then HPLC for degradants. Format: physicochemical. The settings on record: oven at 210° C. for 10 mins, compared with unheated sample. The protocol:
The antimicrobial agents were placed into an oven set at 210° C. for 10 mins (to mimic condition in which the antimicrobial agent would be exposed to heat during the compounding and extrusion processes). Another set of the same antimicrobial agents was not exposed to any heat. The unheated and heated samples were then examined through HPLC method for presence of degradants (extra peaks). Results of CHA and CHD are in FIGS. 8, 9, 10, and 11. […] Similar to CHD, ALX-D was also found stable at 210° C. for 10 mins and was found suitable for including in the device through compounding process.
Regarding `CC(=O)O.CC(=O)O.NC(=N\CCCCCC/N=C(N)/N=C(\N)Nc1ccc(Cl)cc1)/N=C(\N)Nc1ccc(Cl)cc1` [CHA, Chlorhexidine Diacetate], the “thermal stability, presence of degradants (extra peaks) by HPLC” value (“thermal stability, presence” below) was “several extra peaks from degradants”.

On to `CCCCC(CC)CNC(=N)NC(=N)NCCCCCCNC(=N)NC(=N)NCC(CC)CCCC` (stereo not drawn) [ALX-D, Alexidine Dihydrochloride], for which the “thermal stability, presence” value is listed as “stable”. Regarding `[H]/N=C(\N/C(=N/[H])NCCCCCCNC(=N)NC(=N)Nc1ccc(Cl)cc1)Nc1ccc(Cl)cc1` [CHD, Chlorhexidine Dihydrochloride], the “thermal stability, presence” value is “absence of any extra peaks”.
